Measured values as given in PMC9933715 (Antimicrobial Agents and Chemotherapy, 2023).
Read-outs that look alike come from different tables or passages of the source.

Experiments:
[1] = system: DENV-R2A (Rluc-expressing DENV, serotype 2 strain 16681); assay: microbe, parasite or virus in culture; type: cell-based, Dengue virus; conditions: for activity at 50 µM: Dengue virus, Huh7.5, 48 h; for inhibitory activity against DENV-R2A (SAR, in words) / antiviral activity against DENV-R2A (SAR, in words): 50 μM; for antiviral activity against DENV-R2A (SAR, in words): NPP3C analogues
[2] = system: ZIKV-R2A (strain FSS13025); assay: microbe, parasite or virus in culture; type: cell-based; conditions: Zika virus, Huh7.5, 48 h, read-out: ZIKV-R2A replication (fold DMSO) Mean
[3] = system: Huh7.5 cells; assay: Cell viability, CellTiter-Glo luminescent assay; conditions: for Cell viability (fold DMSO) Mean: deconvolution screen, singletons, uninfected Huh7.5
[4] = read-out: DENV-R2A replication (fold DMSO) Mean, deconvolution screen, singletons, 50 µM, Huh7.5, 2 days postinfection
[5] = read-out: DENV-R2A replication (Fold DMSO), 6A1HI analogues, test concentration = 50 µM, Huh7.5 cells
[6] = read-out: DENV-R2A replication (Fold DMSO), Table S3, NPP3C analogues, 50 µM, Huh7.5, 2 days postinfection
[7] = read-out: DENV-R2A replication (fold DMSO), Table 2, 6A1HI analogues, 50 μM, Huh7.5, 2 days postinfection
[8] = 6A1HI analogues, test concentration = 50 µM, Huh7.5 cells
[9] = Table 2, 6A1HI analogues, 50 μM, Huh7.5, 2 days
[10] = Table S3, NPP3C analogues, 50 µM, Huh7.5
[11] = read-out: DENV-R2A replication (fold DMSO), Table 1, NPP3C analogues, 50 μM, Huh7.5, 2 days postinfection
[12] = Table S3, NPP3C analogues, 50 µM, Huh7.5, 2 days postinfection
[13] = Table 1, NPP3C analogues, 50 μM, Huh7.5, 2 days

Structure (SMILES) | activity at 50 µM [1, 4] | activity at 50 µM [2] | Cell viability (fold DMSO) Mean ([3]; 50 µM) | activity at 50 µM [1, 5] | Cell viability (Fold DMSO) [3, 8] | Cell viability (Fold DMSO) [3, 10] | other results
Cn1cncc1C(=O)O [AS-5483, Cn1cncc1C(=O)O] | 99% | 99% | 1.12 fold DMSO | – | – | – | –
Clc1ccc(N2CCNCC2)nc1 [AS-5607, Clc1ccc(nc1)N2CCNCC2] | 76% | 81% | 1.13 fold DMSO | – | – | – | –
COC(=O)[C@H]1CCC(=O)N1 [AS-7023, COC(=O)[C@H]1CCC(=O)N1] | 102% | 103% | 1.19 fold DMSO | – | – | – | –
OCc1c[nH]c(-c2ccccc2)n1 [CB-0713, OCc1c[nH]c(n1)c2ccccc2] | 92% | 100% | 1.02 fold DMSO | – | – | – | –
CC(=O)c1ccccc1-n1ccnc1 [Compound 1B-028, CC(=O)c1ccccc1n2ccnc2] | 59% | 58% | 0.78 fold DMSO | – | – | – | –
NC(=O)c1ccco1 [Compound 2B-052, NC(=O)c1occc1] | 98% | 112% | 1.17 fold DMSO | – | – | – | –
CC1CCN(Cc2ccc(Cl)nc2)CC1 [Compound 2X-0836, CC1CCN(Cc2ccc(Cl)nc2)CC1] | 89% | 104% | 1.16 fold DMSO | – | – | – | –
OCc1ccc2cn[nH]c2c1 [Compound 3] | – | – | – | 110% | 0.93 Fold DMSO | 0.94 Fold DMSO | activity at 50 µM [1, 6]: 89%; activity at 50 µM [1, 7]: 110%; Cell viability (Fold DMSO) [3, 9]: 0.93 fold DMSO
CC(=O)c1ccc2cn(C)nc2c1 [Compound 4] | – | – | – | 97% | 0.75 Fold DMSO | 0.96 Fold DMSO | inhibitory activity against DENV-R2A (SAR, in words) ([1]; 6A1HI analogues): loss of inhibitory activity; activity at 50 µM [1, 6]: 105%; activity at 50 µM [1, 7]: 97%; Cell viability (Fold DMSO) [3, 9]: 0.75 fold DMSO
c1ccn(-c2cnccn2)c1 [Compound 6N-039, c1ccn(c1)c2cnccn2] | 95% | 99% | 0.93 fold DMSO | – | – | – | –
NCc1ccc2cn[nH]c2c1 [Compound 6] | – | – | – | 96% | 0.76 Fold DMSO | 0.77 Fold DMSO | activity at 50 µM [1, 6]: 55%; activity at 50 µM [1, 7]: 96%; Cell viability (Fold DMSO) [3, 9]: 0.76 fold DMSO
O=C1CCC(c2ccccc2)=NN1 [Compound 7L-571S, O=C1CCC(=NN1)c2ccccc2] | 107% | 124% | 0.99 fold DMSO | – | – | – | –
Cc1cnn2c(C3CC3)ccnc12 [Compound 7T-0305, Cc1cnn2c(ccnc12)C3CC3] | 108% | 111% | 1.06 fold DMSO | – | – | – | –
O=C(Nc1ccccc1)N1CCNCC1 [Compound 7] | – | – | – | 105% | – | – | activity at 50 µM [1, 11]: 82%; activity at 50 µM [1, 7]: 105%
Clc1ncc(CN2CCCCC2)s1 [Compound 8N-010, Clc1ncc(CN2CCCCC2)s1] | 101% | 111% | 0.95 fold DMSO | – | – | – | –
Clc1ncc(Cn2ccnc2)s1 [Compound 8P-013, Clc1ncc(Cn2ccnc2)s1] | 104% | 118% | 0.94 fold DMSO | – | – | – | –
CC(=O)c1ccc2cc(O)ccc2c1 [Compound 8X-0242, CC(=O)c1ccc2cc(O)ccc2c1] | 86% | 81% | 1.00 fold DMSO | – | – | – | –
CNC(=O)c1cn(C)c2ccccc12 [Compound 9T-1495, CNC(=O)c1cn(C)c2ccccc12] | 103% | 98% | – | – | – | – | –
CC(=O)c1cccc2cn[nH]c12 [Compound 9] | – | – | – | 90% | 1.03 Fold DMSO | 0.96 Fold DMSO | inhibitory activity against DENV-R2A (SAR, in words) ([1]; 6A1HI analogues): inhibitory activity was completely lost; activity at 50 µM [1, 6]: 107%; activity at 50 µM [1, 7]: 90%; Cell viability (Fold DMSO) [3, 9]: 1.03 fold DMSO
Nc1cccc(-c2cccnc2)c1 [Compound 10] | – | – | – | – | 0.93 Fold DMSO | 0.93 Fold DMSO | DENV-R2A replication (Fold DMSO) [1, 8]: 1.00 Fold DMSO; DENV-R2A replication (Fold DMSO) [1, 12]: 1.04 Fold DMSO

Structure (SMILES) | activity at 50 µM [1, 4] | activity at 50 µM [2] | Cell viability (fold DMSO) Mean ([3]; 50 µM) | activity at 50 µM [1, 5] | Cell viability (Fold DMSO) [3, 8] | Cell viability (Fold DMSO) [3, 10] | other results
Oc1ccc2[nH]ncc2c1 [Compound 18] | – | – | – | 106% | 0.98 Fold DMSO | 0.95 Fold DMSO | activity at 50 µM [1, 6]: 101%; activity at 50 µM [1, 7]: 106%; Cell viability (Fold DMSO) [3, 9]: 0.98 fold DMSO
O=C(Nc1ccncc1)c1ccccc1 [Compound 28] | – | – | – | – | 0.48 Fold DMSO | 1.05 Fold DMSO | DENV-R2A replication (Fold DMSO) [1, 8]: 0.09 Fold DMSO; DENV-R2A replication (Fold DMSO) [1, 12]: 1.05 Fold DMSO
O=C(Nc1ccccc1Cl)c1cccnc1 [Compound 29] | – | – | – | 55% | 0.96 Fold DMSO | 0.95 Fold DMSO | activity at 50 µM [1, 11]: 99%; Cell viability (Fold DMSO) [3, 13]: 0.95 fold DMSO
O=C(c1ccccc1)c1cccnc1 [Compound 33] | – | – | – | – | 0.89 Fold DMSO | 0.95 Fold DMSO | DENV-R2A replication (Fold DMSO) [1, 8]: 0.95 Fold DMSO; DENV-R2A replication (Fold DMSO) [1, 12]: 1.14 Fold DMSO
O=C(NC1CC1)c1ccc(C(F)(F)F)nc1 [Compound 41] | – | – | – | – | 0.98 Fold DMSO | 0.90 Fold DMSO | DENV-R2A replication (Fold DMSO) [1, 8]: 1.13 Fold DMSO; DENV-R2A replication (Fold DMSO) [1, 12]: 1.24 Fold DMSO
CC(=O)c1ccc2c(c1)OCO2 [Compound 42] | – | – | – | 107% | 0.93 Fold DMSO | 1.15 Fold DMSO | inhibitory activity against DENV-R2A (SAR, in words) ([1]; 6A1HI analogues): loss of inhibitory activity; activity at 50 µM [1, 6]: 153%; activity at 50 µM [1, 7]: 107%; Cell viability (Fold DMSO) [3, 9]: 0.93 fold DMSO
O=C(Nc1cccc(B(O)O)c1)c1cccnc1 [Compound 52] | – | – | – | 115% | – | – | activity at 50 µM [1, 11]: 107%; activity at 50 µM [1, 7]: 115%
O=C(NNc1ccccc1)c1ccncc1 [Compound 54] | – | – | – | 106% | 0.95 Fold DMSO | 0.67 Fold DMSO | activity at 50 µM [1, 11]: 37%; antiviral activity against DENV-R2A (SAR, in words) [1]: retains little activity, if any; Cell viability (Fold DMSO) [3, 13]: 0.67 fold DMSO
Nc1cccc(NC(=O)c2cccnc2)c1 [Compound 55] | – | – | – | 134% | 1.08 Fold DMSO | 0.96 Fold DMSO | activity at 50 µM [1, 11]: 75%; Cell viability (Fold DMSO) [3, 13]: 0.96 fold DMSO
CC(Nc1ccccc1)c1cccnc1 (stereo not drawn) [Compound 56] | – | – | – | 114% | 0.98 Fold DMSO | 0.94 Fold DMSO | activity at 50 µM [1, 11]: 147%; antiviral activity against DENV-R2A (SAR, in words) [1]: retains little activity, if any; Cell viability (Fold DMSO) [3, 13]: 0.94 fold DMSO
Nc1ccc(C(=O)Nc2ccccc2)cc1 [Compound 61] | – | – | – | – | 0.83 Fold DMSO | 0.98 Fold DMSO | DENV-R2A replication (Fold DMSO) [1, 8]: 1.09 Fold DMSO; DENV-R2A replication (Fold DMSO) [1, 12]: 0.98 Fold DMSO
O=C(Nc1ccccc1)c1ccc(C(F)(F)F)nc1 [Compound 62] | – | – | – | – | 1.03 Fold DMSO | 0.79 Fold DMSO | DENV-R2A replication (Fold DMSO) [1, 8]: 0.93 Fold DMSO; DENV-R2A replication (Fold DMSO) [1, 12]: 0.71 Fold DMSO
c1ccc(NCc2cccnc2)cc1 [Compound 63] | – | – | – | 81% | – | – | activity at 50 µM [1, 11]: 138%; antiviral activity against DENV-R2A (SAR, in words) [1]: retains little activity, if any
O=C(Nc1ccc(C(F)(F)F)cc1)c1cccnc1 [Compound 65] | – | – | – | 115% | 1.17 Fold DMSO | 0.87 Fold DMSO | activity at 50 µM [1, 11]: 98%; Cell viability (Fold DMSO) [3, 13]: 0.87 fold DMSO
N#CC(Cc1cccnc1)C(=O)Nc1ccccc1 (stereo not drawn) [Compound 68] | – | – | – | – | 1.03 Fold DMSO | 0.93 Fold DMSO | DENV-R2A replication (Fold DMSO) [1, 8]: 1.02 Fold DMSO; DENV-R2A replication (Fold DMSO) [1, 12]: 1.79 Fold DMSO
O=C(NNC(=O)c1ccncc1)Nc1ccccc1 [Compound 69] | – | – | – | – | 1.02 Fold DMSO | 0.88 Fold DMSO | DENV-R2A replication (Fold DMSO) [1, 8]: 0.98 Fold DMSO; DENV-R2A replication (Fold DMSO) [1, 12]: 1.32 Fold DMSO
NC(=O)c1ccc2cn[nH]c2c1 [Compound 75] | – | – | – | 106% | 0.99 Fold DMSO | – | activity at 50 µM [1, 7]: 106%; Cell viability (Fold DMSO) [3, 9]: 0.99 fold DMSO
CC(=O)c1ccc2[nH]c(=O)[nH]c2c1 [Compound 76] | – | – | – | 87% | 0.98 Fold DMSO | – | inhibitory activity against DENV-R2A (SAR, in words) ([1]; 6A1HI analogues): loss of inhibitory activity; activity at 50 µM [1, 7]: 87%; Cell viability (Fold DMSO) [3, 9]: 0.98 fold DMSO
O=C1CCc2ccccc21 [PS-5770, O=C1CCc2ccccc12] | 103% | 103% | – | – | – | – | –
